Data as given in ChEMBL document CHEMBL3351409, “Repurposing cryptosporidium inosine 5'-monophosphate dehydrogenase inhibitors as potential antibacterial agents” (ACS Med Chem Lett, 2014).
pIC50, pKi: −log10 of the molar value. ≈ marks a conversion by molar mass, not a printed value. Calls of active or inactive are those of the source. No cut-off for these calls is given here.

Legend:
[1] = tested on: Bacillus anthracis str. Sterne; test: Ratio of MIC for Bacillus anthracis Sterne 7702 in presence of 0.01 % guanine to MIC for Bacillus anthracis Sterne 7702; format: functional
Staphylococcus aureus [2] = test: Antibacterial activity against Staphylococcus aureus ATCC 13709 Smith; format: functional
Staphylococcus aureus [3] = test: Antibacterial activity against Staphylococcus aureus ATCC 13709 Smith in presence of 0.01 % guanine; format: functional
Listeria monocytogenes [4] = test: Antibacterial activity against Listeria monocytogenes 10403S; format: functional
Staphylococcus aureus [5] = test: Antibacterial activity against Staphylococcus aureus NCTC 8325; format: functional
Staphylococcus aureus [6] = test: Ratio of MIC for Staphylococcus aureus ATCC 13709 Smith in presence of 0.01 % guanine to MIC for Staphylococcus aureus ATCC 13709 Smith; format: functional
[7] = Antibacterial activity against Bacillus anthracis Sterne 7702 in presence of 0.01 % guanine; format: functional, Bacillus anthracis str. Sterne
Listeria monocytogenes [8] = test: Ratio of MIC for Listeria monocytogenes 10403S in presence of 0.01 % guanine to MIC for Listeria monocytogenes 10403S; format: functional
Staphylococcus aureus [9] = test: Antibacterial activity against Staphylococcus aureus NCTC 8325 in presence of 0.01 % guanine; format: functional
Staphylococcus aureus [10] = test: Ratio of MIC for Staphylococcus aureus NCTC 8325 in presence of 0.01 % guanine to MIC for Staphylococcus aureus NCTC 8325; format: functional
[11] = Antibacterial activity against Bacillus anthracis Sterne 7702; format: functional, Bacillus anthracis str. Sterne
[12] = biological target: T1, Inosine-5'-monophosphate dehydrogenase (Bacillus anthracis, UniProt A0A6L8P2U9); test: Non-competitive inhibition of Bacillus anthracis IMPDH preincubated for 10 mins before IMP substrate addition by spectrophotometry
T1 sequence (A0A6L8P2U9 whole entry): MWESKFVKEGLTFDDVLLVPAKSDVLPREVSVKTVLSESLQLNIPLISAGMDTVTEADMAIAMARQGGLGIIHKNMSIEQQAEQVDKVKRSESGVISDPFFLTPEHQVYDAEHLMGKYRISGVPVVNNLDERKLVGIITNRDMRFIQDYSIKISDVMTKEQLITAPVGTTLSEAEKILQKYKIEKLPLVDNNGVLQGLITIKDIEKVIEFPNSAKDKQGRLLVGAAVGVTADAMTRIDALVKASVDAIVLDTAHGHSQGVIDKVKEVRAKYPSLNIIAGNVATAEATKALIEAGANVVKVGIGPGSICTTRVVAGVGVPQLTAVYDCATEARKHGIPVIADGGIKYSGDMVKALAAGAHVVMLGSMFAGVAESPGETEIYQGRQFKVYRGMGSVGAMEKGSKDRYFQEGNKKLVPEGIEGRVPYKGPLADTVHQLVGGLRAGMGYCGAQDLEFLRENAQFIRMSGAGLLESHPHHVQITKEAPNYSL

[13] = biological target: T2, Inosine-5'-monophosphate dehydrogenase (Cryptosporidium parvum, UniProt Q8T6T2); test: Competitive inhibition of Cryptosporidium IMPDH preincubated for 10 mins before NAD+ substrate addition by spectrophotometry
T2 sequence (Q8T6T2 whole entry): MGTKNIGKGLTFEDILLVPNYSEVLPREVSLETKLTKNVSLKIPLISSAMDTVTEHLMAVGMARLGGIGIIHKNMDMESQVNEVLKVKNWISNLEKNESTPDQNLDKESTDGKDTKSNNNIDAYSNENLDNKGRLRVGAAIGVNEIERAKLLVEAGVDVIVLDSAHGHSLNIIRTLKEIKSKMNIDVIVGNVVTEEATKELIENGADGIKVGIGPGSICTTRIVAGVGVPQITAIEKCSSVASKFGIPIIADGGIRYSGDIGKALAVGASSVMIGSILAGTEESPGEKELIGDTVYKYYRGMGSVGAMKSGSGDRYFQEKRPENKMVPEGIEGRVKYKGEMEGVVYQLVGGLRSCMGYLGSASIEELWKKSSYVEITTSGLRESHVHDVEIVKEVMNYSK

[14] = biological target: T1, Inosine-5'-monophosphate dehydrogenase; test: Non-competitive inhibition of Bacillus anthracis IMPDH preincubated for 10 mins before NAD+ substrate addition by spectrophotometry
[15] = biological target: T2, Inosine-5'-monophosphate dehydrogenase; test: Un-competitive inhibition of Cryptosporidium IMPDH preincubated for 10 mins before IMP substrate addition by spectrophotometry
Listeria monocytogenes [16] = test: Antibacterial activity against Listeria monocytogenes 10403S in presence of 0.01 % guanine; format: functional
[17] = Selectivity ratio of IC50 for Bacillus anthracis IMPDH to IC50 for Cryptosporidium IMPDH
[18] = biological target: T2, Inosine-5'-monophosphate dehydrogenase; test: Inhibition of Cryptosporidium IMPDH preincubated for 10 mins before substrate addition by spectrophotometry
[19] = biological target: T1, Inosine-5'-monophosphate dehydrogenase; test: Inhibition of Bacillus anthracis IMPDH preincubated for 10 mins before substrate addition by spectrophotometry
[20] = biological target: T2, Inosine-5'-monophosphate dehydrogenase; test: Non-competitive inhibition of Cryptosporidium IMPDH preincubated for 10 mins before NAD+ substrate addition by spectrophotometry

`C[C@@H](Oc1cccc2cnccc12)c1cn(-c2ccc(Cl)cc2)nn1` gave a Ratio [1] of 8, an MIC (Staphylococcus aureus [2]) of 8 µM (≈ 2.81 µg/mL) and an MIC (Staphylococcus aureus [3]) greater than 30 µM. The MIC (Listeria monocytogenes [4]) was 3.8 µM (≈ 1.33 µg/mL), the MIC (Staphylococcus aureus [5]) was 7.5 µM (≈ 2.63 µg/mL) and the Ratio (Staphylococcus aureus [6]) was 8. It also gave an MIC [7] greater than 30 µM, a Ratio (Listeria monocytogenes [8]) of 8 and an MIC (Staphylococcus aureus [9]) greater than 30 µM. The Ratio (Staphylococcus aureus [10]) was 8 and the MIC [11] was 2 µM (≈ 0.702 µg/mL).
`C[C@@H](Oc1cc[n+]([O-])c2ccccc12)c1cn(-c2ccc(Cl)cc2)nn1` showed a Ratio [1] of 8, an MIC (Staphylococcus aureus [2]) of 2 µM (≈ 0.734 µg/mL) and an MIC (Staphylococcus aureus [3]) of 16 µM. It also gave a pKi [12] of 7.42, an MIC (Listeria monocytogenes [4]) of 7.5 µM (≈ 2.75 µg/mL) and an MIC (Staphylococcus aureus [5]) of 1.8 µM (≈ 0.66 µg/mL). For the same compound, the Ratio (Staphylococcus aureus [6]) was 8, the MIC [7] was 8 µM and the Ratio (Listeria monocytogenes [8]) was 8. It also gave a pKi [13] of 8.30, a pKi [14] of 7.24 and an MIC (Staphylococcus aureus [9]) greater than 30 µM. The Ratio (Staphylococcus aureus [10]) was 8, the pKi [15] was 8.30 and the MIC [11] was 1 µM (≈ 0.367 µg/mL). For the same compound, the MIC (Listeria monocytogenes [16]) was “inactive”.
Compound `O=C(Nc1ccc(Cl)cc1)C(Oc1cccc2ccccc12)C1CC1` (centres undefined) has a Ratio IC50 [17] of less than 0.5 and a pIC50 [18] of less than 5.30.
`C[C@H](Oc1cccc2ccccc12)C(=O)Nc1ccc2oc(-c3ccncc3)nc2c1` gave a pKi [12] of 7.62, a pKi [13] of 7.89 and a pKi [14] of 7.77. The pKi [15] was 7.19.
With `C/C(=N\O)c1cccc(C(C)(C)NC(=O)Nc2ccc(Cl)c(C(F)(F)F)c2)c1` the Ratio IC50 [17] was less than 0.5 and the pIC50 [19] was 8.70.
In the case of `CC(C)C(Oc1cccc2ccccc12)C(=O)Nc1ccc(Cl)cc1` (centres undefined), the Ratio IC50 [17] was less than 0.5, the pIC50 [19] was 6.92 and the pIC50 [18] was 6.15.
`O=C(COc1cccc2ccccc12)Nc1ccc(Br)cc1` showed a Ratio IC50 [17] of less than 0.5, a pIC50 [19] of 6.12 and a pIC50 [18] of less than 5.30.
Work on `CCN(CC)C(=O)c1ccc(NC(=O)NC(C)(C)c2cccc(/C(C)=N/O)c2)cc1Cl` yielded a Ratio [1] of 8, an MIC (Staphylococcus aureus [2]) of 4 µM (≈ 1.78 µg/mL) and an MIC (Staphylococcus aureus [3]) greater than 30 µM. It also gave an MIC (Listeria monocytogenes [4]) of 15 µM (≈ 6.67 µg/mL), an MIC (Staphylococcus aureus [5]) of 0.9 µM (≈ 0.4 µg/mL) and a Ratio (Staphylococcus aureus [6]) of 8. It also gave an MIC [7] greater than 30 µM, a Ratio (Listeria monocytogenes [8]) of 8 and an MIC (Staphylococcus aureus [9]) greater than 30 µM. For the same compound, the Ratio (Staphylococcus aureus [10]) was 8 and the MIC [11] was 0.5 µM (≈ 0.222 µg/mL).
For `Cn1nc(CC(=O)Nc2ccc3oc4c(c3c2)CCCC4)c2ccccc2c1=O`, the pKi [12] was 7.92, the pKi [20] was 7.31 and the pKi [14] was 6.30. It also gave a pKi [15] of 8.30.
For `C[C@H](Oc1cccc(Cl)c1Cl)C(=O)Nc1ccc2oc(-c3ccncc3)nc2c1`, the Ratio IC50 [17] was less than 0.5 and the pIC50 [19] was 8.00.
Work on `C/C(=N\O)c1cccc(C(C)(C)NC(=O)Nc2ccc(Cl)c(Cl)c2)c1` yielded a Ratio IC50 [17] of less than 0.5, a pIC50 [19] of 7.02 and a pIC50 [18] of 6.72.
Compound `C/C(=N\O)c1cccc(C(C)(C)NC(=O)Nc2ccc(Cl)c(C(=O)N3CCOCC3)c2)c1` has an MIC (Staphylococcus aureus [2]) of 2 µM (≈ 0.918 µg/mL), an MIC (Staphylococcus aureus [3]) greater than 30 µM and an MIC (Listeria monocytogenes [4]) greater than 30 µM. For the same compound, the MIC (Staphylococcus aureus [5]) was 3.8 µM (≈ 1.74 µg/mL), the Ratio (Staphylococcus aureus [6]) was 8 and the Ratio (Listeria monocytogenes [8]) was 8. For the same compound, the MIC (Staphylococcus aureus [9]) was 7.5 µM and the Ratio (Staphylococcus aureus [10]) was 8.
For `C[C@H](Nc1cccc(Cl)c1Cl)C(=O)Nc1ccc2oc(-c3ccncc3)nc2c1`, the Ratio IC50 [17] was less than 0.5 and the pIC50 [19] was 8.30.
`C[C@H](C(=O)Nc1ccc2oc(-c3ccncc3)nc2c1)c1ccccc1` gave a Ratio IC50 [17] of less than 0.5.
Compound `C/C(=N\O)c1cccc(C(C)(C)NC(=O)Nc2ccc(Br)cc2)c1` has a pKi [12] of 7.32, a Ratio IC50 [17] of less than 0.5 and a pKi [20] of 7.82. It also gave a pIC50 [18] of 8.05, a pKi [14] of 8.64 and a pKi [15] of 7.92.
In the case of `O=C(Cn1c(-c2ccccn2)nc2ccccc21)Nc1ccc2ccccc2c1`, the pKi [12] was 6.09, the pKi [20] was 7.85 and the pKi [14] was 7.36. It also gave a pKi [15] of 7.89.
`CC(Oc1ccc(-c2ccccc2)cc1)C(=O)Nc1ccc(Cl)cc1` (centres undefined) showed a Ratio IC50 [17] of less than 0.5 and a pIC50 [18] of 5.96.
Compound `C/C(=N\O)c1cccc(C(C)(C)NC(=O)Nc2ccc(Cl)c(C(=O)N3CCN(C)CC3)c2)c1` has a Ratio IC50 [17] of less than 0.5 and a pIC50 [18] of 6.48.
Compound `C[C@H](Oc1cccc(Cl)c1Cl)C(=O)Nc1ccc2nc(-c3ccncc3)oc2c1` has a Ratio IC50 [17] of less than 0.5 and a pIC50 [19] of 8.00.
In the case of `CC(=O)c1cccc(CNC(=O)Nc2ccc(Cl)cc2)c1`, the Ratio IC50 [17] was less than 0.5, the pIC50 [19] was 5.92 and the pIC50 [18] was less than 5.30.
`C=C(C)c1cccc(C(C)(C)NC(=O)Nc2ccc(Cl)c(C(F)(F)F)c2)c1` gave a Ratio IC50 [17] of less than 0.5.
For `O=C(Nc1ccc(Cl)cc1)C(Oc1cccc2ccccc12)c1ccccc1` (centres undefined), the Ratio IC50 [17] was less than 0.5, the pIC50 [19] was 5.62 and the pIC50 [18] was less than 5.30.
`CC(Oc1cccc([N+](=O)[O-])c1Cl)C(=O)Nc1ccc2oc(-c3ccncc3)nc2c1` (centres undefined) gave a Ratio IC50 [17] of less than 0.5, a pIC50 [19] of 7.85 and a pIC50 [18] of 7.31.
`C[C@H](Oc1cccc(Cl)c1Cl)C(=O)Nc1cccc(NC(=O)c2ccncc2)c1` showed a Ratio IC50 [17] of less than 0.5 and a pIC50 [19] of 6.52.
In the case of `C/C(=N\O)c1cccc(C(C)(C)NC(=O)Nc2ccc(Cl)c(C(N)=O)c2)c1`, the pKi [12] was 8.82, the pKi [20] was 8.22 and the pKi [14] was 8.10. The pKi [15] was 8.70.
